These results are taken from PubChem BioAssay AID248 (DTP/NCI, 2004).

This assay deals with L1210 leukemia ip in BDF1 mice, survival T/C. Kind of assay: NCI In Vivo Anticancer Drug Screen. Data for tumor model L1210 Leukemia (intraperitoneal) in B6D2F1 (BDF1) mice. The following applies: endpoint: mean survival time, higher = longer survival. In outline: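 Ratio derived from survival: compound-dosed mice over vehicle-dosed mice, all bearing a transplantable tumor.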

[1] abbreviates: dose: 100.0 mg/kg/injection, schedule: Q01DX001 (ip), vehicle: saline.
Where [2] appears, read: dose: 200.0 mg/kg/injection, schedule: Q01DX001 (ip), vehicle: saline.
Where [3] appears, read: dose: 400.0 mg/kg/injection, schedule: Q01DX001 (ip), vehicle: saline.
Where [4] appears, read: dose: 50.0 mg/kg/injection, schedule: Q01DX001 (ip), vehicle: saline.
Where [5] appears, read: dose: 100.0 mg/kg/injection, schedule: Q04DX003 (ip), vehicle: saline with Tween-80.
Setting [6] is: dose: 200.0 mg/kg/injection, schedule: Q04DX003 (ip), vehicle: saline with Tween-80.
The mark [7] stands for this setting: dose: 400.0 mg/kg/injection, schedule: Q04DX003 (ip), vehicle: saline with Tween-80.
Setting [8] is: dose: 100.0 mg/kg/injection, schedule: Q01DX009 (ip), vehicle: Klucel (hydroxypropylcellulose) (HPC).
Setting [9] is: dose: 100.0 mg/kg/injection, schedule: Q04DX003 (ip), vehicle: Klucel (hydroxypropylcellulose) (HPC).
Where [10] appears, read: dose: 100.0 mg/kg/injection, schedule: Q04DX002 (ip), vehicle: saline.
Setting [11] is: dose: 200.0 mg/kg/injection, schedule: Q01DX009 (ip), vehicle: Klucel (hydroxypropylcellulose) (HPC).

Values joined by “and” are separate entries in the source; they are usually repeats but may differ in a detail not shown here. Equal values may be shown once. Toxic doses and inconclusive results are not listed.

On to `CCCCCC(C)NC(=O)N(CCCl)N=O` (stereo unspecified) (tested in a mixture with another compound), for which the T/C is, setting by setting: (dose: 12.0 mg/kg/injection, schedule: Q01DX001 (ip), vehicle: saline with Tween-80) 109 % of control; (dose: 18.0 mg/kg/injection, schedule: Q01DX001 (ip), vehicle: saline with Tween-80) 116 % of control; (dose: 27.0 mg/kg/injection, schedule: Q01DX001 (ip), vehicle: saline with Tween-80) 169 % of control; (dose: 40.0 mg/kg/injection, schedule: Q01DX001 (ip), vehicle: saline with Tween-80) 151 % of control; (dose: 60.0 mg/kg/injection, schedule: Q01DX001 (ip), vehicle: saline with Tween-80) 200 % of control; (dose: 90.0 mg/kg/injection, schedule: Q01DX001 (ip), vehicle: saline with Tween-80) 210 % of control. Besides, the T/C (dose: 133.0 mg/kg/injection, schedule: Q01DX001 (ip), vehicle: saline with Tween-80) is 88 % of control.

As for `C=CC[n+]1ccccc1Br`, the T/C (dose: 62.0 mg/kg/injection, schedule: Q01DX015 (ip), vehicle: water) was 102 % of control and the T/C (dose: 125.0 mg/kg/injection, schedule: Q01DX015 (ip), vehicle: water) is 106 % of control.

Take `Nc1ccccc1Nc1ccc(-c2ccc(Nc3ccccc3N)cc2)cc1`: the T/C is 94 % of control under setting [1], 100 % of control under setting [2] and 92 % of control under setting [3].

Consider `C[CH2][Pb]([CH2]C)([CH2]C)[O]C(=O)COc1ccccc1`, for which the T/C was 98 % of control (dose: 0.75 mg/kg/injection, schedule: Q01DX009 (ip), vehicle: Klucel (hydroxypropylcellulose) (HPC)); 96 % of control (dose: 0.75 mg/kg/injection, schedule: Q04DX003 (ip), vehicle: saline with Tween-80); 95 % of control (dose: 1.5 mg/kg/injection, schedule: Q01DX009 (ip), vehicle: Klucel (hydroxypropylcellulose) (HPC)); 95 % of control (dose: 1.5 mg/kg/injection, schedule: Q04DX003 (ip), vehicle: saline with Tween-80); 106 % of control (dose: 3.0 mg/kg/injection, schedule: Q01DX009 (ip), vehicle: Klucel (hydroxypropylcellulose) (HPC)); 101 % of control (dose: 3.0 mg/kg/injection, schedule: Q04DX003 (ip), vehicle: saline with Tween-80). Further, the T/C was 102 % of control (dose: 6.0 mg/kg/injection, schedule: Q01DX009 (ip), vehicle: Klucel (hydroxypropylcellulose) (HPC)); 91 % of control (dose: 6.0 mg/kg/injection, schedule: Q04DX003 (ip), vehicle: saline with Tween-80); 101 % of control (dose: 12.0 mg/kg/injection, schedule: Q04DX003 (ip), vehicle: saline with Tween-80); 103 % of control (dose: 12.5 mg/kg/injection, schedule: Q04DX002 (ip), vehicle: Klucel (hydroxypropylcellulose) (HPC)); 97 % of control (dose: 25.0 mg/kg/injection, schedule: Q04DX002 (ip), vehicle: Klucel (hydroxypropylcellulose) (HPC)).

For `Cc1nc(N)[nH]c(=O)c1CCCNS(=O)(=O)c1ccc(N)cc1`, the T/C was 100 % of control under setting [4], 97 % of control under setting [1], 100 % of control under setting [2] and 94 % of control under setting [3].

Turning to `CCCCCCN`, the T/C was 97 % of control (dose: 25.0 mg/kg/injection, schedule: Q01DX001 (ip), vehicle: saline); 93 % of control and 105 % of control (dose: 25.0 mg/kg/injection, schedule: Q01DX009 (ip), vehicle: saline); 97 % of control and 100 % of control (dose: 25.0 mg/kg/injection, schedule: Q04DX002 (ip), vehicle: saline); 103 % of control (dose: 25.0 mg/kg/injection, schedule: Q04DX003 (ip), vehicle: saline); 111 % of control under setting [4]; 101 % of control and 104 % of control (dose: 50.0 mg/kg/injection, schedule: Q01DX009 (ip), vehicle: saline). Also, the T/C by setting is: (dose: 50.0 mg/kg/injection, schedule: Q04DX002 (ip), vehicle: saline) 97 % of control and 103 % of control; (dose: 50.0 mg/kg/injection, schedule: Q04DX003 (ip), vehicle: saline) 114 % of control; under setting [1], 101 % of control; (dose: 100.0 mg/kg/injection, schedule: Q01DX009 (ip), vehicle: saline) 102 % of control; (dose: 100.0 mg/kg/injection, schedule: Q04DX003 (ip), vehicle: saline) 110 % of control.

On to `Nc1c(Br)cc2c(c1Br)Cc1cc([N+](=O)[O-])ccc1-2`, for which the T/C is, setting by setting: under setting [5], 104 % of control; under setting [6], 103 % of control; under setting [7], 98 % of control.

With `O=[N+]([O-])c1cc(F)ccc1O`, the T/C reads like this: under setting [8], 94 % of control; under setting [9], 101 % of control; under setting [5], 97 % of control; under setting [6], 106 % of control.

Take `COc1ccc(CCN=C(N)CCl)cc1`: the T/C is 95 % of control under setting [10] and 106 % of control (dose: 200.0 mg/kg/injection, schedule: Q04DX002 (ip), vehicle: saline).

Take `S=c1nc[nH]c2n[nH]nc12`: the T/C runs as follows: (dose: 12.5 mg/kg/injection, schedule: Q01DX001 (ip), vehicle: saline with Tween-80) 104 % of control; (dose: 25.0 mg/kg/injection, schedule: Q01DX001 (ip), vehicle: saline with Tween-80) 103 % of control; (dose: 50.0 mg/kg/injection, schedule: Q01DX001 (ip), vehicle: saline with Tween-80) 98 % of control; (dose: 100.0 mg/kg/injection, schedule: Q01DX001 (ip), vehicle: saline with Tween-80) 98 % of control; (dose: 200.0 mg/kg/injection, schedule: Q01DX001 (ip), vehicle: saline with Tween-80) 101 % of control; (dose: 400.0 mg/kg/injection, schedule: Q01DX001 (ip), vehicle: saline with Tween-80) 103 % of control.

As for `Cc1cc(=O)[nH]c(N/N=C/C(C)C)n1`, the T/C is 95 % of control (dose: 50.0 mg/kg/injection, schedule: Q01DX009 (ip), vehicle: Klucel (hydroxypropylcellulose) (HPC)); 95 % of control under setting [8]; 95 % of control under setting [9]; 93 % of control under setting [11]; 89 % of control (dose: 200.0 mg/kg/injection, schedule: Q04DX003 (ip), vehicle: Klucel (hydroxypropylcellulose) (HPC)).

Regarding `C=CCOCC(O)CN1CCC(C)CC1` (stereo unspecified), the T/C was 95 % of control (dose: 6.0 mg/kg/injection, schedule: Q04DX003 (ip), vehicle: Klucel (hydroxypropylcellulose) (HPC)); 95 % of control (dose: 12.0 mg/kg/injection, schedule: Q04DX003 (ip), vehicle: Klucel (hydroxypropylcellulose) (HPC)); 97 % of control (dose: 25.0 mg/kg/injection, schedule: Q04DX003 (ip), vehicle: Klucel (hydroxypropylcellulose) (HPC)); 98 % of control (dose: 50.0 mg/kg/injection, schedule: Q04DX003 (ip), vehicle: Klucel (hydroxypropylcellulose) (HPC)); 95 % of control under setting [9].

Take `CCCCNc1nc(N)nc(N)c1N=Nc1ccc(Cl)cc1`: the T/C (dose: 100.0 mg/kg/injection, schedule: Q01DX001 (ip), vehicle: carboxymethylcellulose (CMC)) is 101 % of control; the T/C (dose: 200.0 mg/kg/injection, schedule: Q01DX001 (ip), vehicle: carboxymethylcellulose (CMC)) was 96 % of control; the T/C (dose: 400.0 mg/kg/injection, schedule: Q01DX001 (ip), vehicle: carboxymethylcellulose (CMC)) is 98 % of control.

Consider `CCc1cc(C)cc(OC(=O)Nc2cc(Cl)ccc2C)c1`, for which the T/C is 95 % of control under setting [8]; 90 % of control under setting [11]; 100 % of control (dose: 400.0 mg/kg/injection, schedule: Q01DX009 (ip), vehicle: Klucel (hydroxypropylcellulose) (HPC)).

With `CC1C(N2CCCCC2)CS1(=O)=O` (stereo unspecified), the T/C under setting [10] was 121 % of control.

Take `Cn1nnnc1N/N=C(\Br)c1ccccc1`: the T/C by setting is: (dose: 100.0 mg/kg/injection, schedule: Q01DX009 (ip), vehicle: saline with Tween-80) 96 % of control; under setting [5], 104 % of control; (dose: 200.0 mg/kg/injection, schedule: Q01DX009 (ip), vehicle: saline with Tween-80) 93 % of control; under setting [6], 104 % of control; (dose: 400.0 mg/kg/injection, schedule: Q01DX009 (ip), vehicle: saline with Tween-80) 95 % of control; under setting [7], 100 % of control.
